# Measurements reported in the NIST ThermoML archive (doi:10.1021/acs.jced.7b00788).
# Numbers after ± are expanded uncertainties.
# Assay: xn = mol fraction of the nth substance listed
# Conditions: 100 kPa, Liquid; for viscosity: Concentric cylinders viscometry; for mass density: Vibrating tube method
structure (smiles),measurement,setting,value
CCOP(=O)([O-])OCC.CCn1cc[n+](C)c1 [1-ethyl-3-methylimidazolium diethyl phosphate] + O,viscosity,"293.15 K, x2 = 0.012",540 ± 30 mPa·s
same,viscosity,"293.15 K, x2 = 0.061",513 ± 28 mPa·s
same,viscosity,"293.15 K, x2 = 0.123",487 ± 26 mPa·s
same,viscosity,"293.15 K, x2 = 0.183",462 ± 25 mPa·s
same,viscosity,"293.15 K, x2 = 0.259",422 ± 22 mPa·s
same,viscosity,"293.15 K, x2 = 0.502",202 ± 10 mPa·s
same,viscosity,"293.15 K, x2 = 0.765",51.1 ± 2.7 mPa·s
same,viscosity,"293.15 K, x2 = 0.88",12.5 ± 0.9 mPa·s
same,mass density,"293.15 K, x2 = 0.012",1151.2 ± 1.2 kg/m3
same,mass density,"293.15 K, x2 = 0.061",1151.7 ± 1.1 kg/m3
same,mass density,"293.15 K, x2 = 0.123",1152.1 ± 1 kg/m3
same,mass density,"293.15 K, x2 = 0.183",1152.4 ± 1 kg/m3
same,mass density,"293.15 K, x2 = 0.259",1153 ± 0.9 kg/m3
same,mass density,"293.15 K, x2 = 0.502",1154.6 ± 0.7 kg/m3
same,mass density,"293.15 K, x2 = 0.765",1150.2 ± 0.6 kg/m3
same,mass density,"293.15 K, x2 = 0.88",1124 ± 1.7 kg/m3
same,viscosity,"303.15 K, x2 = 0.012",274 ± 15 mPa·s
same,viscosity,"303.15 K, x2 = 0.061",262 ± 14 mPa·s
same,viscosity,"303.15 K, x2 = 0.123",250 ± 14 mPa·s
same,viscosity,"303.15 K, x2 = 0.183",238 ± 13 mPa·s
same,viscosity,"303.15 K, x2 = 0.259",219 ± 12 mPa·s
same,viscosity,"303.15 K, x2 = 0.502",111 ± 6 mPa·s
same,viscosity,"303.15 K, x2 = 0.765",31.2 ± 1.5 mPa·s
same,viscosity,"303.15 K, x2 = 0.88",8.35 ± 0.44 mPa·s
same,mass density,"303.15 K, x2 = 0.012",1144.2 ± 1.2 kg/m3
same,mass density,"303.15 K, x2 = 0.061",1144.7 ± 1.1 kg/m3
same,mass density,"303.15 K, x2 = 0.123",1145.2 ± 1 kg/m3
same,mass density,"303.15 K, x2 = 0.183",1145.5 ± 0.9 kg/m3
same,mass density,"303.15 K, x2 = 0.259",1146.1 ± 0.9 kg/m3
same,mass density,"303.15 K, x2 = 0.502",1147.8 ± 0.7 kg/m3
same,mass density,"303.15 K, x2 = 0.765",1143.1 ± 0.6 kg/m3
same,mass density,"303.15 K, x2 = 0.88",1116.7 ± 1.4 kg/m3
same,viscosity,"313.15 K, x2 = 0.012",154 ± 8 mPa·s
same,viscosity,"313.15 K, x2 = 0.061",148 ± 7 mPa·s
same,viscosity,"313.15 K, x2 = 0.123",141 ± 7 mPa·s
same,viscosity,"313.15 K, x2 = 0.183",135 ± 7 mPa·s
same,viscosity,"313.15 K, x2 = 0.259",125 ± 6 mPa·s
same,viscosity,"313.15 K, x2 = 0.502",65.8 ± 3.1 mPa·s
same,viscosity,"313.15 K, x2 = 0.765",20.3 ± 1 mPa·s
same,viscosity,"313.15 K, x2 = 0.88",5.91 ± 0.3 mPa·s
same,mass density,"313.15 K, x2 = 0.012",1137.4 ± 1.2 kg/m3
same,mass density,"313.15 K, x2 = 0.061",1137.9 ± 1.1 kg/m3
same,mass density,"313.15 K, x2 = 0.123",1138.4 ± 1 kg/m3
same,mass density,"313.15 K, x2 = 0.183",1138.7 ± 0.9 kg/m3
same,mass density,"313.15 K, x2 = 0.259",1139.3 ± 0.9 kg/m3
same,mass density,"313.15 K, x2 = 0.502",1141.1 ± 0.7 kg/m3
same,mass density,"313.15 K, x2 = 0.765",1135.9 ± 0.6 kg/m3
same,mass density,"313.15 K, x2 = 0.88",1109.2 ± 1.4 kg/m3
same,viscosity,"323.15 K, x2 = 0.012",94 ± 4.4 mPa·s
same,viscosity,"323.15 K, x2 = 0.061",90.2 ± 4.2 mPa·s
same,viscosity,"323.15 K, x2 = 0.123",86.4 ± 4 mPa·s
same,viscosity,"323.15 K, x2 = 0.183",83.1 ± 3.8 mPa·s
same,viscosity,"323.15 K, x2 = 0.259",76.5 ± 3.5 mPa·s
same,viscosity,"323.15 K, x2 = 0.502",40.7 ± 1.8 mPa·s
same,viscosity,"323.15 K, x2 = 0.765",14 ± 0.6 mPa·s
same,viscosity,"323.15 K, x2 = 0.88",4.38 ± 0.22 mPa·s
same,mass density,"323.15 K, x2 = 0.012",1130.7 ± 1.2 kg/m3
same,mass density,"323.15 K, x2 = 0.061",1131.2 ± 1.1 kg/m3
same,mass density,"323.15 K, x2 = 0.123",1131.7 ± 1 kg/m3
same,mass density,"323.15 K, x2 = 0.183",1132 ± 0.9 kg/m3
same,mass density,"323.15 K, x2 = 0.259",1132.6 ± 0.8 kg/m3
same,mass density,"323.15 K, x2 = 0.502",1134.3 ± 0.7 kg/m3
same,mass density,"323.15 K, x2 = 0.765",1128.6 ± 0.6 kg/m3
same,mass density,"323.15 K, x2 = 0.88",1101.7 ± 1.3 kg/m3
same,viscosity,"333.15 K, x2 = 0.012",61.2 ± 2.8 mPa·s
same,viscosity,"333.15 K, x2 = 0.061",58.8 ± 2.6 mPa·s
same,viscosity,"333.15 K, x2 = 0.123",56.2 ± 2.5 mPa·s
same,viscosity,"333.15 K, x2 = 0.183",54.3 ± 2.4 mPa·s
same,viscosity,"333.15 K, x2 = 0.259",49.3 ± 2.2 mPa·s
same,viscosity,"333.15 K, x2 = 0.502",27.6 ± 1.2 mPa·s
same,viscosity,"333.15 K, x2 = 0.765",10.1 ± 0.5 mPa·s
same,viscosity,"333.15 K, x2 = 0.88",3.36 ± 0.16 mPa·s
same,mass density,"333.15 K, x2 = 0.012",1124.1 ± 1.1 kg/m3
same,mass density,"333.15 K, x2 = 0.061",1124.6 ± 1.1 kg/m3
same,mass density,"333.15 K, x2 = 0.123",1125 ± 1 kg/m3
same,mass density,"333.15 K, x2 = 0.183",1125.4 ± 0.9 kg/m3
same,mass density,"333.15 K, x2 = 0.259",1126 ± 0.8 kg/m3
same,mass density,"333.15 K, x2 = 0.502",1127.4 ± 0.7 kg/m3
same,mass density,"333.15 K, x2 = 0.765",1121.2 ± 0.6 kg/m3
same,mass density,"333.15 K, x2 = 0.88",1094 ± 1.3 kg/m3
same,viscosity,"343.15 K, x2 = 0.012",42.1 ± 1.9 mPa·s
same,viscosity,"343.15 K, x2 = 0.061",40.4 ± 1.8 mPa·s
same,viscosity,"343.15 K, x2 = 0.123",38.6 ± 1.7 mPa·s
same,viscosity,"343.15 K, x2 = 0.183",37.4 ± 1.6 mPa·s
same,viscosity,"343.15 K, x2 = 0.259",34.1 ± 1.5 mPa·s
same,viscosity,"343.15 K, x2 = 0.502",19.6 ± 0.8 mPa·s
same,viscosity,"343.15 K, x2 = 0.765",7.58 ± 0.33 mPa·s
same,viscosity,"343.15 K, x2 = 0.88",2.67 ± 0.13 mPa·s
same,mass density,"343.15 K, x2 = 0.012",1117.5 ± 1.1 kg/m3
same,mass density,"343.15 K, x2 = 0.061",1118 ± 1.1 kg/m3
same,mass density,"343.15 K, x2 = 0.123",1118.4 ± 1 kg/m3
same,mass density,"343.15 K, x2 = 0.183",1118.8 ± 0.9 kg/m3
same,mass density,"343.15 K, x2 = 0.259",1119.3 ± 0.8 kg/m3
same,mass density,"343.15 K, x2 = 0.502",1120.5 ± 0.7 kg/m3
same,mass density,"343.15 K, x2 = 0.765",1113.8 ± 0.6 kg/m3
same,mass density,"343.15 K, x2 = 0.88",1086.1 ± 1.3 kg/m3
same,viscosity,"353.15 K, x2 = 0.012",30.2 ± 1.3 mPa·s
same,viscosity,"353.15 K, x2 = 0.061",29 ± 1.3 mPa·s
same,viscosity,"353.15 K, x2 = 0.123",27.7 ± 1.2 mPa·s
same,viscosity,"353.15 K, x2 = 0.183",26.9 ± 1.2 mPa·s
same,viscosity,"353.15 K, x2 = 0.259",24.5 ± 1.1 mPa·s
same,viscosity,"353.15 K, x2 = 0.502",14.4 ± 0.6 mPa·s
same,viscosity,"353.15 K, x2 = 0.765",5.88 ± 0.25 mPa·s
same,viscosity,"353.15 K, x2 = 0.88",2.18 ± 0.1 mPa·s
same,mass density,"353.15 K, x2 = 0.012",1111 ± 1.1 kg/m3
same,mass density,"353.15 K, x2 = 0.061",1111.5 ± 1.1 kg/m3
same,mass density,"353.15 K, x2 = 0.123",1111.9 ± 1 kg/m3
same,mass density,"353.15 K, x2 = 0.183",1112.1 ± 0.9 kg/m3
same,mass density,"353.15 K, x2 = 0.259",1112.7 ± 0.8 kg/m3
same,mass density,"353.15 K, x2 = 0.502",1113.7 ± 0.7 kg/m3
same,mass density,"353.15 K, x2 = 0.765",1106.3 ± 0.6 kg/m3
same,mass density,"353.15 K, x2 = 0.88",1078.1 ± 1.3 kg/m3
same,viscosity,"363.15 K, x2 = 0.012",22.5 ± 1 mPa·s
same,viscosity,"363.15 K, x2 = 0.061",21.6 ± 0.9 mPa·s
same,viscosity,"363.15 K, x2 = 0.123",20.6 ± 0.9 mPa·s
same,viscosity,"363.15 K, x2 = 0.183",20 ± 0.9 mPa·s
same,viscosity,"363.15 K, x2 = 0.259",18.3 ± 0.8 mPa·s
same,viscosity,"363.15 K, x2 = 0.502",11.2 ± 0.5 mPa·s
same,viscosity,"363.15 K, x2 = 0.765",4.69 ± 0.2 mPa·s
same,viscosity,"363.15 K, x2 = 0.88",1.83 ± 0.09 mPa·s
same,mass density,"363.15 K, x2 = 0.012",1104.5 ± 1.1 kg/m3
same,mass density,"363.15 K, x2 = 0.061",1104.9 ± 1 kg/m3
same,mass density,"363.15 K, x2 = 0.123",1105.2 ± 1 kg/m3
same,mass density,"363.15 K, x2 = 0.183",1105.6 ± 0.9 kg/m3
same,mass density,"363.15 K, x2 = 0.259",1106.1 ± 0.8 kg/m3
same,mass density,"363.15 K, x2 = 0.502",1106.8 ± 0.7 kg/m3
same,mass density,"363.15 K, x2 = 0.765",1098.7 ± 0.6 kg/m3
same,mass density,"363.15 K, x2 = 0.88",1070 ± 0.8 kg/m3
same,viscosity,"373.15 K, x2 = 0.012",17.3 ± 0.8 mPa·s
same,viscosity,"373.15 K, x2 = 0.061",16.5 ± 0.7 mPa·s
same,viscosity,"373.15 K, x2 = 0.123",15.8 ± 0.7 mPa·s
same,viscosity,"373.15 K, x2 = 0.183",15.3 ± 0.7 mPa·s
same,viscosity,"373.15 K, x2 = 0.259",14.1 ± 0.6 mPa·s
same,viscosity,"373.15 K, x2 = 0.502",8.9 ± 0.4 mPa·s
same,viscosity,"373.15 K, x2 = 0.765",3.83 ± 0.16 mPa·s
same,viscosity,"373.15 K, x2 = 0.88",1.55 ± 0.08 mPa·s
same,mass density,"373.15 K, x2 = 0.012",1098.2 ± 1.1 kg/m3
same,mass density,"373.15 K, x2 = 0.061",1098.5 ± 1 kg/m3
same,mass density,"373.15 K, x2 = 0.123",1098.9 ± 1 kg/m3
same,mass density,"373.15 K, x2 = 0.183",1099.1 ± 0.9 kg/m3
same,mass density,"373.15 K, x2 = 0.259",1099.6 ± 0.8 kg/m3
same,mass density,"373.15 K, x2 = 0.502",1099.9 ± 0.7 kg/m3
same,mass density,"373.15 K, x2 = 0.765",1091.2 ± 1 kg/m3
same,mass density,"373.15 K, x2 = 0.88",1061.9 ± 0.8 kg/m3
